Reference: US5389621A, “Method of enhancing the anticoagulant effects of aspirin using salicylamide” (University of Medicine and Dentistry of New Jersey, priority 1994, dated 1995)

Tests used:
platelet cyclooxygenase = assay: Thromboxane B2 synthesis by arachidonic acid-stimulated platelet-rich plasma in vitro; assay type: cell-based, male Sprague-Dawley rats; settings: ASA/SA 1:1 w/w, TX B2
Source text: Was done manually by the method of Brecher and Conkite (1953) using phase contrast microscopy (Balplan) with a 40×annulus, 40×phase objective, and 10×ocular (total of 400×), and a special platelet counting chamber (American Optical Corp., Buffalo, N.Y.) and dilution with 1% ammonium oxalate. The platelet-rich plasma (PRP) was adjusted by dilution with platelet-poor plasma (PPP) to give a final count of 1×10^9 platelets/ml.
Arachidonic acid (as the sodium salt, >99.0% pure) was obtained from Sigma Chemical Co. and a stock solution of 34.5 mM was prepared by dissolving in isotonic saline. 20 μl of the stock solution were added to 440 μl of PRP (400 μl of PRP and 20 or 40 μl of treatment solution ±20 μl of saline) to make a 23 fold dilution. The final concentration of AA in PRP was 1.5 mM.
EDTA solution was prepared by adding 2 gm disodium EDTA and 0.8 gm NaCl and were adjusted to pH 7.4 with NaOH and made up to a final volume of 100 ml in distilled water. ASA solution was prepared by dissolving 30 mg in 10 ml of isotonic saline to make a solution of 3 mg/ml.
950 μl of EDTA solution were added to 50 μl of ASA solution and the mixture was vortexed. 40 μl of the mixture were pipetted in the experiment test tubes to stop further prostaglandin production.
Platelet-rich plasma (PRP) was prepared from male Sprague-Dawley rats (300-325 gm). The blood was collected by heart puncture and added to 3.8% citrate solution, final volume 9:1, blood:citrate. The blood was centrifuged at 120×g (750 rpm) for 15 minutes at 4° C. to obtain PRP. The rest of the blood was spun at 1800×g (3000 rpm) for 10 minutes to get the PPP which was used later for dilution of the PRP to achieve the final desired platelet concentration of 1×10^9 platelets/ml. 400 μl of PRP, containing 4×10^8 platelets, were pipetted in polypropylene tubes and the following treatment groups were studied:
1--Baseline (-ve control) tubes: to measure the baseline production of Thromboxane B2 (TX B2) by platelets during the time of the experiment, 60 μl of saline were added and left for 10 minutes in a shaking water bath at 37° C.
2--Control (+ve control) tubes: 20 μl of arachidonic acid (AA) solution were added to achieve a final concentration of 1.5 mM and the tubes were incubated […].
3--ASA and/or SAM treatment tubes: 20 μl of ASA (final conc. 130 μg/ml), 20 μl of SAM solution (final conc. 40 μg/ml), 20 μl of ASA/SAM(L) solution (final conc. 130/40 μg/ml) or 20 μl of ASA/SAM(H) solution (final conc. 130/120 μg/ml) were added to PRP together with 20 μl of saline for 10 minutes, then 20 μl of AA solution were added for additional 10 minutes.
4--ASA/SA treatment: 20 μl of ASA/SA solution (final conc. 130/130 μg/ml) and 20 μl of saline were added to the tubes for 10 minutes before AA was added for further 10 minutes.
5--ASA/SA/SAM treatment: 20 μl of ASA/SA solution (130/130 μg/ml as final conc.) and 20 μl of […] in low (L) or high (H) concentrations (40 or 120 μg/ml, final conc.) were added simultaneously to PRP followed 10 minutes later by AA.
6--SAM/SA treatment: 20 μl of SAM solution (final conc. 40 μg/ml) and 20 μl of SA solution (final conc. 130 μg/ml) were added followed 10 minutes later by AA for additional 10 minutes.
Also, the effect of SAM when administered first to the platelets followed 10 minutes later by ASA was studied to know whether the effect of SAM is time dependent or not.
During the treatment, all the tubes were incubated at 37° C. in a shaking water bath. Ten minutes after the addition of AA, or saline (for the control tubes), the experiment was ended by addition of 40 μl of EDTA/ASA solution. The tubes were immediately centrifuged at 1800×g for 15 minutes at 4° C. to precipitate the platelets and 100 μl of the supernatant were obtained for estimation of their content of TX B2 using a specific radioimmunoassay (Amersham International) (vide infra).
Radioimmunoassay Procedure for Measurement of Thromboxane B2 and 6-keto PG F1alpha […]

[1] = cited from earlier work
cyclooxygenase = settings: in vitro; cited from earlier work
[2] = system: lyso-PAF:acetyl-CoA acetyltransferase; settings: cited from earlier work

O=C(O)c1ccccc1O [SA, salicylic acid]
Antagonism of ASA effect by SA (platelet cyclooxygenase): ~ 70% | Pharmacokinetics linearity ([1]; humans and rats): non-linear and dose-dependent | Distribution and plasma albumin binding ([1]; rat, in vivo): concentration-dependent distribution and plasma albumin binding | Effect on cyclooxygenase (cyclooxygenase): does not have the capacity to inhibit cyclooxygenase | Effect on lyso-PAF:acetyl-CoA acetyltransferase [2]: inhibitory effect
